Drawing on ChEMBL document CHEMBL1155739, “New indole alkaloids from the bark of Nauclea orientalis” (J Nat Prod, 2001), this text covers IC50 and Activity for two compounds.

Values after ≈ are worked out from the molar mass of the structure shown. Active and inactive are the calls of the source. The rule behind the calls is not given here.

The nature of assay [1]: (§1) Inhibition of Candida albicans secreted aspartic protease.
In a further assay the test system is Candida albicans. Described as §1.

Broadly, the IC50 is the concentration that gives 50% inhibition. Read a low IC50 as greater potency in that assay. The compound `CC(C)CC(=O)N[C@H](C(=O)N[C@H](C(=O)N[C@@H](CC(C)C)[C@@H](O)CC(=O)N[C@@H](C)C(=O)N[C@@H](CC(C)C)[C@@H](O)CC(=O)O)C(C)C)C(C)C` [PEPSTATIN] showed an IC50 in assay [1] of 6 ng/mL (≈ 8.75 nM).

As to `C=C[C@@H]1C2=C[C@H]3c4[nH]c5ccccc5c4CCN3C(=O)C2=C(O)O[C@H]1O[C@@H]1O[C@H](CO)[C@@H](O)[C@H](O)[C@H]1O`, in the assay with Candida albicans, the result was inactive.
